Reference: ChEMBL document CHEMBL2434925, “Synthesis and antiviral activity of a novel class of (5-oxazolyl)phenyl amines” (Eur J Med Chem, 2013)

Legend:
[1] = Cytotoxicity against human Huh7.5 cells after 96 hrs by MTT assay; assay type: cell-based, Huh-7
Hepatitis C virus = assay: Antiviral activity against HCV expressing pFL-J6/JFH/JC1 infected in human Huh7.5 cells assessed as inhibition of viral RNA synthesis after 96 hrs by one-step RT-PCR analysis; assay type: functional, organism-based, Hepacivirus hominis; conditions: Huh-7, 96 h
[2] = Selectivity index, ratio of CC50 for human Huh7.5 cells to IC50 for HCV expressing pFL-J6/JFH/JC1; assay type: functional, Huh-7
[3] = Cytotoxicity against african green monkey Vero cells after 96 hrs by MTT assay; assay type: cell-based; conditions: chlorocebus sabaeus
Coxsackievirus B3 = assay: Antiviral activity against Coxsackie B3 virus Nancy in african green monkey Vero cells assessed as inhibition virus-induced cytopathic effect after 48 hrs; assay type: functional, organism-based; conditions: Enterovirus B
[4] = Selectivity index, ratio of CC50 for african green monkey Vero cells to IC50 for Coxsackie B3 virus Nancy; assay type: functional
Coxsackievirus B6 = assay: Antiviral activity against Coxsackie B6 virus Schmitt in african green monkey Vero cells assessed as inhibition virus-induced cytopathic effect after 48 hrs; assay type: functional, organism-based; conditions: Enterovirus B
[5] = Selectivity index, ratio of CC50 for african green monkey Vero cells to IC50 for Coxsackie B3 virus Schmitt; assay type: functional

Structure (SMILES)	CC50 at 96 h [1] [µM]	IC50 (Hepatitis C virus) [µM]	Ratio CC50/IC50 [2]	CC50 at 96 h [3] [µM]	IC50 (Coxsackievirus B3) [µM]	Ratio CC50/IC50 [4]	IC50 (Coxsackievirus B6) [µM]	Ratio CC50/IC50 [5]
COc1cc(NCc2ccc(C)s2)ccc1-c1cnco1	34.4	2.05	16.8	24.7	3.52	7	2.1	11.8
COc1ccc(O)c(CNc2ccc(-c3cnco3)c(OC)c2)c1	> 100	9.95	>10.1	98.2	9.96	9.9	22.7	4.3
COc1cc(NCc2ccc(C(=O)O)s2)ccc1-c1cnco1	> 100	22.4	>4.5	350	67.3	5.2	56	6.2
COc1ccc(-c2cnco2)cc1NCc1ccc(C)s1	52.9	2.42	21.9	42.7	8.22	5.2	12.8	3.4
COc1cc(NCc2cccnc2Cl)ccc1-c1cnco1	40.5	1.8	22.5	40.6	4.21	9.7	3.33	12.2
COc1cc(NCc2ccncc2)ccc1-c1cnco1	72.2	5.71	12.7	342	26.3	13	15.2	22.5
COc1cc(/N=C/C=C/c2ccccc2)ccc1-c1cnco1	> 100	6.99	>14.3	105	15.1	7	18.9	5.6
COc1ccc(CNc2ccc(-c3cnco3)c(OC)c2)cc1	41.3	1.4	29.5	23.9	0.87	27.5	3.42	7
COc1cc(NCc2cc(OC)c(OC)c(OC)c2)ccc1-c1cnco1	36.6	> 3.71	<9.9	41.6	11.6	3.6	11.6	3.6
COc1cc(NCc2csc3ccccc23)ccc1-c1cnco1	23.6	> 1.24	<19.1	12.7	1.87	6.8	2.43	5.2
COc1ccc(CNc2ccc(-c3cnco3)c(OC)c2)cn1	56.8	3.25	17.5	371	6.03	61.5	10.1	36.7
COc1cc(/N=C/c2ccncc2)ccc1-c1cnco1	> 100	1.61	>62.1	239	34.9	6.8	15.3	15.6
COc1cc(NCc2cccc(C)n2)ccc1-c1cnco1	62.7	2.4	26.1	75.2	14.5	5.2	6.36	11.8
CCc1ccc(CNc2ccc(-c3cnco3)c(OC)c2)s1	39.1	1.98	19.8	13.6	2	6.8	4.55	3
COc1cc(/N=C/c2cccs2)ccc1-c1cnco1	> 100	5.72	>17.5	406	101	4	45.1	9
COc1cc(NCc2ccc(Cl)s2)ccc1-c1cnco1	43.2	0.33	130.8	53.8	1.37	39.3	0.84	64
COc1c(C)c2c(c(O)c1C/C=C(\C)CCC(=O)O)C(=O)OC2 [MYCOPHENOLIC ACID]	> 100	4.16	>24	624	10.2	61.5	69.4	9
COc1cc(NCc2ccsc2)ccc1-c1cnco1	63.1	1.25	50.5	181	3.66	49.4	4.65	38.9
COc1cc(NCc2ccc(C)o2)ccc1-c1cnco1	63.4	1.01	62.8	45.1	5.01	9	6.78	6.7
COc1cc(/N=C/c2ccc([N+](=O)[O-])o2)ccc1-c1cnco1	20.5	1.24	16.5	13.7	> 7.88	–	4.88	2.8
COc1cc(NCc2cncs2)ccc1-c1cnco1	68.9	0.73	94.4	232	19.6	11.8	11.3	20.5
COc1cc(NCc2ccc(Br)s2)ccc1-c1cnco1	39.4	> 3.75	<10.5	47.3	5.14	9.2	1.2	39.4
COc1cc(NCc2ccc(OC)c(OC)c2OC)ccc1-c1cnco1	32	0.66	48.4	28.8	0.73	39.5	1.7	17
COc1cc(NCc2scnc2C)ccc1-c1cnco1	58.5	6.88	8.5	73.7	5.67	13	10.6	7
COc1cc(NCc2ccc(-c3ccccc3)s2)ccc1-c1cnco1	26	0.92	28.3	6.82	2.26	3	0.75	9.1
NC(=O)c1ncn([C@@H]2O[C@H](CO)[C@@H](O)[C@H]2O)n1 [RIBAVIRIN]	–	–	–	8190	1580	5.2	910	–
COc1ccc2[nH]cc(CNc3ccc(-c4cnco4)c(OC)c3)c2c1	> 100	0.82	>122	36.7	> 7.07	–	> 7.07	–
